In patent publication US20220117958A1, “COMPOSITIONS AND METHODS FOR INHIBITING ACSS2” (THE TRUSTEES OF THE UNIVERSITY OF PENNSYLVANIA, priority 2018, published 2022):

Legend:
Type in all cases: in vitro ADME
[1] = Microsomal stability assay (half-life), rat; conditions: Rat (SD) microsomes, read-out: Microsomal stability T1/2
From the text: (§1) Table 20 provides results of in vitro and in vivo pharmacokinetics performed for each of the represented compounds.

[2] = Microsomal stability assay (half-life), mouse; conditions: Mouse (CD1) microsomes, read-out: Microsomal stability T1/2
From the text: as §1

[3] = Microsomal stability assay (half-life), human; conditions: Human microsomes, read-out: Microsomal stability T1/2
From the text: as §1

[4] = Protein binding via Rapid Equilibrium Dialysis - plasma; conditions: Rat (SD) plasma, 2 μM
From the text: as §1

SMILES | half-life at 2 μM [1] [min] | half-life at 2 μM [2] [min] | half-life at 2 μM [3] [min] | Protein binding, plasma: % Protein free [4] [% Protein free]
CCOc1ccc2ccc(=O)oc2c1 [7-Ethoxycoumarin, reference compound] | 6.13 | < 15 | 7.97 | –
CC(=O)CC(c1ccccc1)c1c(O)c2ccccc2oc1=O (stereo not shown) [Warfarin, reference compound] | – | – | – | 0.5177
